Assay results reported in EP4813991A1 (iLeadBMS Co., Ltd., priority 2023, dated 2025).
Read-outs that look alike come from different tables or passages of the source.

Columns and labels:
CDK12 [1] = biological target: T1, CDK12 (Homo sapiens, UniProt Q9NYV4); assay: CDK12 kinase inhibitory activity assay (33P-ATP filter binding); assay type: biochemical
Procedure, shortened: (§1)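 Radiometric filter-binding read-out: after 20 min compound–enzyme/substrate pre-incubation across 9 concentrations, reaction started with ^33P-γ-ATP and run 120 min at room temperature. Filter-bound ^33P-substrate measured after 0.75 % phosphoric acid washes; remaining activity versus DMSO gives IC50.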

CDK12 [2] = biological target: T1, CDK12; assay: Cellular CDK12 inhibitory activity assay (Ser2 phosphorylation of RNA polymerase II subunit B1 CTD in MDA-MB-231 cells); assay type: cell-based; parameters: using MDA-MB-231 breast cancer cells; endogenous in cells; host or cells: MDA-MB-231; settings: MDA-MB-231 cells, 6 hours treatment; read-out: pRpbl CTD S2 IC50
Procedure, shortened: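 MDA-MB-231 cells in L-15 with 10 % FBS were treated with compound at 9 concentrations for 6 h at 37 °C, 0 % CO2. In-Cell Western read phospho-Ser2 and total RNA polymerase II CTD on a Li-COR Odyssey; IC50 from 4-parameter dose-response fit.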

[3] = system: MDA-MB-231 breast cancer cells; assay: Proliferation inhibitory activity assay against MDA-MB-231 breast cancer cells; assay type: cell-based; settings: Homo sapiens, 72 hours, CellTiter Glo, relative IC50
Procedure, shortened: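 Cells grown in L-15 with 10% FBS at 37 °C, 0% CO2, then exposed next day to compounds at 9 concentrations (DMSO vehicle) for 72 h. Viability read by CellTiter Glo luminescence; relative IC50 from dose-response curve fit.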

CDK1 = CDK1 (Homo sapiens, UniProt P06493); assay: CDK1 kinase inhibitory activity assay and selectivity over CDK12; assay type: biochemical; settings: for IC50: kinase reaction 120 minutes, 33P-gamma-ATP; for CDK1/CDK12: ratio of CDK1 IC50 to CDK12 IC50
Chain of CDK1 (P06493 whole entry, species assumed): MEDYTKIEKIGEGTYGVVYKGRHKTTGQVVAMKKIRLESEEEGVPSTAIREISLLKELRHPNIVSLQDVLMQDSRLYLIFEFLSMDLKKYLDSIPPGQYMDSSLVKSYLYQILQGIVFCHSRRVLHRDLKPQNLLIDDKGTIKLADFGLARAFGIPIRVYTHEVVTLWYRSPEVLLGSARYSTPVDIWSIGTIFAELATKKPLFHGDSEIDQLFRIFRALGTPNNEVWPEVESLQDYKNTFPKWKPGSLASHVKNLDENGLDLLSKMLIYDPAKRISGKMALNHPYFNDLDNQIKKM
Chain of CDK1 (P14635 whole entry partner, species assumed): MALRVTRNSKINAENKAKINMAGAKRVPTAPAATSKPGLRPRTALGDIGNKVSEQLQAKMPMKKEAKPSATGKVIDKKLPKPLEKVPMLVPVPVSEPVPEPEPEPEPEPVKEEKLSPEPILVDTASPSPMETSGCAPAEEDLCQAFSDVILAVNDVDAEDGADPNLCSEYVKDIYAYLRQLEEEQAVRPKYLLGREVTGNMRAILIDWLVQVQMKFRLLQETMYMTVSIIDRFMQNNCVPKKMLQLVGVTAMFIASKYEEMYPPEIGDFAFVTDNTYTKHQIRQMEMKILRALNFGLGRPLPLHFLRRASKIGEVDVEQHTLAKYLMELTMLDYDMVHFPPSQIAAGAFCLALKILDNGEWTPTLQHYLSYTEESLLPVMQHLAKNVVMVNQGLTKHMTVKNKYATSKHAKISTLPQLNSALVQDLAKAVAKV
Protocol: (§2) Before initiating the CDK1 and CDK2 kinase reactions, each Example compound was dissolved and diluted in DMSO as a solvent across 9 concentration ranges at room temperature. The diluted solutions were then incubated with a mixture of kinase and substrate (and cofactors, if required) for 20 minutes. Next, radioisotope-labeled ATP (^33P-gamma-ATP) was added to proceed with the kinase reaction at room temperature for 120 minutes. After the reaction was completed, the reaction mixture was transferred to a filter paper that binds the radioisotope-labeled catalytic product (^33P-substrate). Unreacted ^33P-ATP was removed by washing with 0.75 % phosphoric acid, and then the radioactive phosphorylated substrate remaining on the filter paper was measured. Kinase activity data were expressed as a percentage of the kinase activity remaining in the test sample compared to a DMSO control group. The half-maximal inhibitory concentration (IC50) for each kinase was calculated using Prism software.
(§3) The CDK1 and CDK2 kinase inhibitory activities of the Example compounds measured by the above method were evaluated according to the following criteria, and the results are presented in Table 14.

CDK13 = CDK13 (Homo sapiens, UniProt Q14004); assay: CDK13 kinase inhibitory activity assay (33P-ATP filter binding); assay type: biochemical
Chain of CDK13 (Q14004 whole entry, species assumed): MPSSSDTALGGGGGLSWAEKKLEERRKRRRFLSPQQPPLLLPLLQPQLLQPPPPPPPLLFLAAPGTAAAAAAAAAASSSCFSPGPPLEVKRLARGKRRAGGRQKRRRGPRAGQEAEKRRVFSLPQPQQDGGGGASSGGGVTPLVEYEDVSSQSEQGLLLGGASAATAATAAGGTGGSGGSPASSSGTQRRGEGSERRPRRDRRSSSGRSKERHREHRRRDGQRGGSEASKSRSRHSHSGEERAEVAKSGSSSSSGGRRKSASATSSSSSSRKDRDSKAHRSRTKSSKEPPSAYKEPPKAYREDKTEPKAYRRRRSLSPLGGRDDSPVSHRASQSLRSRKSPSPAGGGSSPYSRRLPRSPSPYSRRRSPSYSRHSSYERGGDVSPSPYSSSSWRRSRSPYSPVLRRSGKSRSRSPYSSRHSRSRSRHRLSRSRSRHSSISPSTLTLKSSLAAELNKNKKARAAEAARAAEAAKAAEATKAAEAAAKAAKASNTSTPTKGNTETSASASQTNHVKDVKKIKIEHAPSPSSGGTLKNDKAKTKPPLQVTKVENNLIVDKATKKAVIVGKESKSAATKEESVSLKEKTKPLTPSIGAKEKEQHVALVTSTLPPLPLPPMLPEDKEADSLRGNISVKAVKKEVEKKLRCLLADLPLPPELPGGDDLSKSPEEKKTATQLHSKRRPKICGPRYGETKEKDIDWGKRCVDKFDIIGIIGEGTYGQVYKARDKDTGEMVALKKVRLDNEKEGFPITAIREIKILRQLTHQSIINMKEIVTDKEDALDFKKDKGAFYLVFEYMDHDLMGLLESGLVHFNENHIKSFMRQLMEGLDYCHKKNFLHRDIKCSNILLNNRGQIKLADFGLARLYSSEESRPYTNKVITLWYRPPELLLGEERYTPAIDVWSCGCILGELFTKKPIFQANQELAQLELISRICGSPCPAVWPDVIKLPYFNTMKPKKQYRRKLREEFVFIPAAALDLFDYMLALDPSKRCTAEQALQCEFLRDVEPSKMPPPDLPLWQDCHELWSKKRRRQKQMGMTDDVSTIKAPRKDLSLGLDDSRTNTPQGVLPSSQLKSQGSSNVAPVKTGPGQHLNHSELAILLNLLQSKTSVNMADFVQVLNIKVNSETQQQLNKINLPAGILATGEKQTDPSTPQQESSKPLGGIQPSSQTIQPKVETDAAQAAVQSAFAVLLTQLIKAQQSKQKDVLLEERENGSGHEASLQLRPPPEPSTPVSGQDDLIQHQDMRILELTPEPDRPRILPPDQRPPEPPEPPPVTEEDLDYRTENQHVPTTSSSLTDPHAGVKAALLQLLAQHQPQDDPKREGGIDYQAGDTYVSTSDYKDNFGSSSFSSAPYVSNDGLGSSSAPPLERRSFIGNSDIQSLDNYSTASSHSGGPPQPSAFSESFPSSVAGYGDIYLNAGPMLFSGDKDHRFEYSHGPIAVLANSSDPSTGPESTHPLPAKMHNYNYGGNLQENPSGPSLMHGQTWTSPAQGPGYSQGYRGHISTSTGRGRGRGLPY
Chain of CDK13 (O75909 whole entry partner, species assumed): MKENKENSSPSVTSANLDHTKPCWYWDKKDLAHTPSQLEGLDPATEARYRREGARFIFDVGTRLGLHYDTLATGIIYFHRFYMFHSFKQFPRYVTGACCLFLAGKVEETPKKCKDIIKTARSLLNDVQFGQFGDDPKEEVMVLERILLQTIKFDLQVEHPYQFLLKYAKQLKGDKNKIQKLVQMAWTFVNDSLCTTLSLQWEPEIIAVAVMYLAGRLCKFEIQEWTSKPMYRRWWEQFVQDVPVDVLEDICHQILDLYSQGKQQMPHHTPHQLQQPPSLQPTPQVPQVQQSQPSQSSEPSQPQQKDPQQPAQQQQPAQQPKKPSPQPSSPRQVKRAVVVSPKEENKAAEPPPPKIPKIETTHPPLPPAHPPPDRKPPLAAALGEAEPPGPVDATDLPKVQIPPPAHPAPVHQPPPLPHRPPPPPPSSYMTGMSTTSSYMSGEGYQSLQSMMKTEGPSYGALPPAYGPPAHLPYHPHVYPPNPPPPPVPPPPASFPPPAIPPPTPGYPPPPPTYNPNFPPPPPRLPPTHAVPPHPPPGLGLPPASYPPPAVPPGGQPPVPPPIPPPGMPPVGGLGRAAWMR
Procedure, shortened: as §1

CDK2 = CDK2 (Homo sapiens, UniProt P24941); assay: CDK2 kinase inhibitory activity assay and selectivity over CDK12; assay type: biochemical; settings: for IC50: kinase reaction 120 minutes, 33P-gamma-ATP; for CDK2/CDK12: ratio of CDK2 IC50 to CDK12 IC50
Protocol: as §2, §3

[4] = kinase reaction 120 minutes, 33P-gamma-ATP, read-out: CDK12 IC50
[5] = kinase reaction 120 minutes, 33P-gamma-ATP, read-out: CDK13 IC50

T1 sequence (Q9NYV4 whole entry, species assumed): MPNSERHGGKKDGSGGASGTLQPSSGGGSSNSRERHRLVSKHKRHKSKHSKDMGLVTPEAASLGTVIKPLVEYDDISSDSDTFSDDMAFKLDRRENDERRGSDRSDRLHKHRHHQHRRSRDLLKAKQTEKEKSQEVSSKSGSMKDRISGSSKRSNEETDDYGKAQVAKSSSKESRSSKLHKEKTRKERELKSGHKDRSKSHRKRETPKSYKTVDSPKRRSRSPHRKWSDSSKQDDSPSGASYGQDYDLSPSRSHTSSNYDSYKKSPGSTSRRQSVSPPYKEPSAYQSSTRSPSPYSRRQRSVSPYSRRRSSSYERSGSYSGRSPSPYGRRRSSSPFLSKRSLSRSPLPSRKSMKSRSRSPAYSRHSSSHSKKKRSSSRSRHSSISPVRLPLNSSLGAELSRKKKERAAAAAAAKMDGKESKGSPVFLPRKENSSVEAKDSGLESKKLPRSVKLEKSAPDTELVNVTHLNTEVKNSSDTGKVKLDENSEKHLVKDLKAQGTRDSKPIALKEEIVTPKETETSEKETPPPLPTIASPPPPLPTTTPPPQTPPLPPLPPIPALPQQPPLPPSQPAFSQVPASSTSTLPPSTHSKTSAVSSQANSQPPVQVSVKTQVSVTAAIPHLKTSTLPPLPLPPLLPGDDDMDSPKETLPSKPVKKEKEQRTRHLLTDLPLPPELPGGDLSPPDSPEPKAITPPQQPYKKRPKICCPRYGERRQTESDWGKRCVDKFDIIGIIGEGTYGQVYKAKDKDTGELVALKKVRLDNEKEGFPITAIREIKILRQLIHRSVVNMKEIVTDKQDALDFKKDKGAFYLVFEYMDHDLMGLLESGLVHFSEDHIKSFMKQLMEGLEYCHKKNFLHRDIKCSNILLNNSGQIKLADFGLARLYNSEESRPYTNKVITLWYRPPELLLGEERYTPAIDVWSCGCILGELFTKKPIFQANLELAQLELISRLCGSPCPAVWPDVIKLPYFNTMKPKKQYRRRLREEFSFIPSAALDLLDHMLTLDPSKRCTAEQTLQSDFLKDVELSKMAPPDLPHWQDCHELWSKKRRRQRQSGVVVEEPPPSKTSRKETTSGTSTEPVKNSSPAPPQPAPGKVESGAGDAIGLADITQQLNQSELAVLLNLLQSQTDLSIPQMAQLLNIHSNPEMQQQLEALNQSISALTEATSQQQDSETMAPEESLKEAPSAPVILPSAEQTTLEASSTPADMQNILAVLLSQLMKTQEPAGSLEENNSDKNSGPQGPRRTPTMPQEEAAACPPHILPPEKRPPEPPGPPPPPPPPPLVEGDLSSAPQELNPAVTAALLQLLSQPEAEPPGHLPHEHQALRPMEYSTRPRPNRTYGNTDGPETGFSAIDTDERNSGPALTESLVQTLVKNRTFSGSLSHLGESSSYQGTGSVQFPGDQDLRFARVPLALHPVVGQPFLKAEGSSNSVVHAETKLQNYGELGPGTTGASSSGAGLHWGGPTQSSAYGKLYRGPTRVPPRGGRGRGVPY
T1 sequence (O75909 whole entry partner, species assumed): as the sequence (O75909 whole entry partner, species assumed) above

| SMILES | IC50 (CDK12 [1]; [4]) | IC50 (CDK12 [2]) | IC50 [3] | IC50 (CDK1) | CDK1/CDK12 (CDK1) | IC50 (CDK13; [5]) | IC50 (CDK2) | CDK2/CDK12 (CDK2) | IC50 (CDK13) | IC50 (CDK12 [1]) |
| --- | --- | --- | --- | --- | --- | --- | --- | --- | --- | --- |
| OC1CN(c2cc(NCc3nc4cc(Cl)c(Cl)cc4[nH]3)c3ncc(C(F)(F)F)n3n2)C1 [Example 41, 1-(8-(((5,6-dichloro-1H-benzo[d]imidazol-2-yl)methyl)amino)-3-(trifluoromethyl)imidazo[1,2-b]pyridazin-6-yl)azetidin-3-ol] | < 100 nM | < 300 nM | 50 to 500 nM | > 1000 nM | B (100-fold < CDK1/CDK12 or CDK2/CDK12 ≤ 500-fold) | < 100 nM | > 1000 nM | B (100-fold < CDK1/CDK12 or CDK2/CDK12 ≤ 500-fold) |  |  |
| Fc1ccc2nc(CNc3cc(N4C5CCC4CNC5)nn4c(C(F)(F)F)cnc34)[nH]c2c1F [Example 11, 6-(3,8-diazabicyclo[3.2.1]octan-8-yl)-N-((6,7-difluoro-1H-benzo[d]imidazol-2-yl)methyl)-3-(trifluoromethyl)imidazo[1,2-b]pyridazin-8-amine] | < 100 nM | < 300 nM | ≤ 50 nM | 100 to 1000 nM | B (100-fold < CDK1/CDK12 or CDK2/CDK12 ≤ 500-fold) | < 100 nM | 100 to 1000 nM | B (100-fold < CDK1/CDK12 or CDK2/CDK12 ≤ 500-fold) |  |  |
| OC1CCN(c2cc(NCc3nc4ccc(F)c(F)c4[nH]3)c3ncc(C(F)(F)F)n3n2)CC1 [Example 19, 1-(8-(((6,7-difluoro-1H-benzo[d]imidazol-2-yl)methyl)amino)-3-(trifluoromethyl)imidazo[1,2-b]pyridazin-6-yl)piperidin-4-ol] | < 100 nM | 300 to 3000 nM | ≤ 50 nM | > 1000 nM | A (CDK1/CDK12 or CDK2/CDK12 > 500-fold) |  | > 1000 nM | A (CDK1/CDK12 or CDK2/CDK12 > 500-fold) | < 100 nM |  |
| C#Cc1cnc2c(NCc3nc4ccc(F)c(F)c4[nH]3)cc(-c3cnc(N)nc3)nn12 [Example 22, 6-(2-aminopyrimidin-5-yl)-N-((6,7-difluoro-1H-benzo[d]imidazol-2-yl)methyl)-3-ethynylimidazo[1,2-b]pyridazin-8-amine] | < 100 nM | < 300 nM | 50 to 500 nM | > 1000 nM | A (CDK1/CDK12 or CDK2/CDK12 > 500-fold) |  | > 1000 nM | A (CDK1/CDK12 or CDK2/CDK12 > 500-fold) | < 100 nM |  |
| O=C(CO)NC1CCN(c2cc(NCc3nc4cc(Cl)c(Cl)cc4[nH]3)c3ncc(C(F)(F)F)n3n2)CC1 [Example 115, N-(1-(8-(((5,6-dichloro-1H-benzo[d]imidazol-2-yl)methyl)amino)-3-(trifluoromethyl)imidazo[1,2-b]pyridazin-6-yl)piperidin-4-yl)-2-hydroxyacetamide] | < 100 nM | < 300 nM | ≤ 50 nM | > 1000 nM | B (100-fold < CDK1/CDK12 or CDK2/CDK12 ≤ 500-fold) |  | > 1000 nM | B (100-fold < CDK1/CDK12 or CDK2/CDK12 ≤ 500-fold) | < 100 nM |  |
| CN1CC2CCC(C1)N2c1cc(NCc2nc3ccc(F)c(F)c3[nH]2)c2ncc(C(F)(F)F)n2n1 [Example 13] | < 100 nM | < 300 nM | ≤ 50 nM | > 1000 nM | A (CDK1/CDK12 or CDK2/CDK12 > 500-fold) | < 100 nM | > 1000 nM | B (100-fold < CDK1/CDK12 or CDK2/CDK12 ≤ 500-fold) |  |  |
| CN1CC2(C1)CN(c1cc(NCc3nc4cc(Cl)c(Cl)cc4[nH]3)c3ncc(C(F)(F)F)n3n1)C2 [Example 46, N-((5,6-dichloro-1H-benzo[d]imidazol-2-yl)methyl)-6-(6-methyl-2,6-diazaspiro[3.3]heptan-2-yl)-3-(trifluoromethyl)imidazo[1,2-b]pyridazin-8-amine] | < 100 nM | < 300 nM | ≤ 50 nM | > 1000 nM |  | < 100 nM | > 1000 nM | B (100-fold < CDK1/CDK12 or CDK2/CDK12 ≤ 500-fold) |  |  |
| OC1CN(c2cc(NCc3nc4ccc(F)c(F)c4[nH]3)c3ncc(C(F)(F)F)n3n2)C1 [Example 16, 1-(8-(((6,7-difluoro-1H-benzo[d]imidazol-2-yl)methyl)amino)-3-(trifluoromethyl)imidazo[1,2-b]pyridazin-6-yl)azetidin-3-ol] | < 100 nM | 300 to 3000 nM | ≤ 50 nM | > 1000 nM | B (100-fold < CDK1/CDK12 or CDK2/CDK12 ≤ 500-fold) | < 100 nM | > 1000 nM | C (CDK1/CDK12 or CDK2/CDK12 ≤ 100-fold) |  |  |
| NC1CCN(c2cc(NCc3nc4ccc(F)c(F)c4[nH]3)c3ncc(C(F)(F)F)n3n2)CC1 [Example 18] | < 100 nM | < 300 nM | ≤ 50 nM | > 1000 nM | A (CDK1/CDK12 or CDK2/CDK12 > 500-fold) | < 100 nM | > 1000 nM | A (CDK1/CDK12 or CDK2/CDK12 > 500-fold) |  |  |
| Nc1ncc(-c2cc(NCc3nc4ccc(F)c(F)c4[nH]3)c3ncc(C(F)(F)F)n3n2)cn1 [Example 35] | < 100 nM | < 300 nM | ≤ 50 nM | > 1000 nM | A (CDK1/CDK12 or CDK2/CDK12 > 500-fold) | < 100 nM | > 1000 nM | B (100-fold < CDK1/CDK12 or CDK2/CDK12 ≤ 500-fold) |  |  |
| OC1CC2CCC(C1)N2c1cc(NCc2nc3ccc(F)c(F)c3[nH]2)c2ncc(C(F)(F)F)n2n1 (stereo not drawn) [Example 14, 8-(8-(((6,7-difluoro-1H-benzo[d]imidazol-2-yl)methyl)amino)-3-(trifluoromethyl)imidazo[1,2-b]pyridazin-6-yl)-8-azabicyclo[3.2.1]octan-3-ol] | 100 to 500 nM | < 300 nM | ≤ 50 nM | > 1000 nM | C (CDK1/CDK12 or CDK2/CDK12 ≤ 100-fold) | < 100 nM | 100 to 1000 nM | C (CDK1/CDK12 or CDK2/CDK12 ≤ 100-fold) |  |  |
| Fc1cccc2[nH]c(CNc3cc(N4CCOCC4)nn4c(C(F)(F)F)cnc34)nc12 [Example 76, N-((4-fluoro-1H-benzo[d]imidazol-2-yl)methyl)-6-morpholino-3-(trifluoromethyl)imidazo[1,2-b]pyridazin-8-amine] | < 100 nM | < 300 nM | ≤ 50 nM | > 1000 nM | A (CDK1/CDK12 or CDK2/CDK12 > 500-fold) | < 100 nM | > 1000 nM | A (CDK1/CDK12 or CDK2/CDK12 > 500-fold) |  |  |
| Fc1ccc2[nH]c(CNc3cc(N4CCOCC4)nn4c(C(F)(F)F)cnc34)nc2c1 [Example 77, N-((5-fluoro-1H-benzo[d]imidazol-2-yl)methyl)-6-morpholino-3-(trifluoromethyl)imidazo[1,2-b]pyridazin-8-amine] | < 100 nM | < 300 nM | ≤ 50 nM | > 1000 nM | A (CDK1/CDK12 or CDK2/CDK12 > 500-fold) | < 100 nM | > 1000 nM | B (100-fold < CDK1/CDK12 or CDK2/CDK12 ≤ 500-fold) |  |  |
| FC(F)(F)c1cnc2c(NCc3nc4ccccc4[nH]3)cc(N3CCOCC3)nn12 [Example 69, N-((1H-benzo[d]imidazol-2-yl)methyl)-6-morpholino-3-(trifluoromethyl)imidazo[1,2-b]pyridazin-8-amine] | < 100 nM | 300 to 3000 nM | 50 to 500 nM | > 1000 nM | B (100-fold < CDK1/CDK12 or CDK2/CDK12 ≤ 500-fold) | < 100 nM | > 1000 nM | B (100-fold < CDK1/CDK12 or CDK2/CDK12 ≤ 500-fold) |  |  |
| Fc1ccc2nc(CNc3cc(N4CCOCC4)nn4c(C5CC5)cnc34)[nH]c2c1F [Example 23, 3-cyclopropyl-N-((6,7-difluoro-lH-benzo[d]imidazol-2-yl)methyl)-6-morpholinoimidazo[1,2-b]pyridazin-8-amine] |  | 300 to 3000 nM | 50 to 500 nM | > 1000 nM |  | < 100 nM | > 1000 nM |  |  | 100 to 500 nM |
